ChEMBL document CHEMBL1129103, “Synthesis and antiviral activity of 2-deoxy-1,5-anhydro-D-mannitol nucleosides containing a pyrimidine base moiety” (1996)
Converted amounts (≈) assume the structure as drawn.

Key:
Format in all cases: functional
Cytomegalovirus = test: Compound was tested for antiherpes activity against Cytomegalovirus virus(AD 169) in HEL cells; details: Human betaherpesvirus 5
Human alphaherpesvirus 3 = test: Compound was tested for antiherpes activity against Varicella zoster virus(OKA) in HEL cells
Human alphaherpesvirus 2 = test: Compound was tested for antiherpes activity against Herpes simplex virus-2(G) in E6SM cell cultures
Human alphaherpesvirus 1 = test: Compound was tested for antiherpes activity against Herpes simplex virus-1(KOS) in E6SM cell cultures

Structure (SMILES)	MIC (Cytomegalovirus) [µg/mL]	MIC (Human alphaherpesvirus 3) [µg/mL]	MIC (Human alphaherpesvirus 2) [µg/mL]	MIC (Human alphaherpesvirus 1) [µg/mL]
O=c1[nH]c(=O)n(C2COC(CO)C(O)C2O)cc1I (stereo not drawn)	> 50	> 50	70 (≈ 182 µM)	7 (≈ 18.2 µM)
Nc1nc2c(ncn2COC(CO)CO)c(=O)[nH]1 [GANCICLOVIR]	1 (≈ 3.92 µM)	–	0.002 (≈ 0.00784 µM)	0.0007 (≈ 0.00274 µM)
Nc1ccn(C2COC(CO)C(O)C2O)c(=O)n1 (stereo not drawn)	10 (≈ 38.9 µM)	10 (≈ 38.9 µM)	70 (≈ 272 µM)	70 (≈ 272 µM)
O=c1ccn(C2COC(CO)C(O)C2O)c(=O)[nH]1 (stereo not drawn)	> 50	> 50	> 200	150 (≈ 581 µM)
Nc1nc2c(ncn2COCCO)c(=O)[nH]1 [ACYCLOVIR]	–	0.5 (≈ 2.22 µM)	0.004 (≈ 0.0178 µM)	0.004 (≈ 0.0178 µM)
